# The source made the active and inactive calls.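 Rule for the calls: active = a full or partial dose-response curve in at least two of three replicate runs; inactive = the rest.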
# Target: D(1B) dopamine receptor (Homo sapiens) (UniProt P21918)
# Assay: dopamine D5 receptor modulation at EC30 dopamine, dose response, selectivity assay for D1 allosteric modulator project, cell-based, HEK293, CRE-luciferase, luminescence (AID 857);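 note: HEK 293 cells expressing human D5 with a CRE-driven luciferase reporter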
# Chain of D(1B) dopamine receptor (Homo sapiens) (P21918 whole entry, looked up): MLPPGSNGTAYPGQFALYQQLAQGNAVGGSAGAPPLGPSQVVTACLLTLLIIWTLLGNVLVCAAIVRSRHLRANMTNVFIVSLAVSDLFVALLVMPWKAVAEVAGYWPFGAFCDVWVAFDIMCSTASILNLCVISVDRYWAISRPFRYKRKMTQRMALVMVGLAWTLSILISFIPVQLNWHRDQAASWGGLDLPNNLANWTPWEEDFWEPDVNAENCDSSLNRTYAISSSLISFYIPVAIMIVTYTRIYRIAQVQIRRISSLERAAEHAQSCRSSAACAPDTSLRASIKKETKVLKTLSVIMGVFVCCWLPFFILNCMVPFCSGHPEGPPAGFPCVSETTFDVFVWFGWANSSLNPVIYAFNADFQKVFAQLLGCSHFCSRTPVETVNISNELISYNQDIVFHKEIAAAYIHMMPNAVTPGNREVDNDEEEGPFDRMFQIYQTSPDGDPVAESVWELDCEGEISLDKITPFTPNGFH
Structure (SMILES),EC50 [nM],outcome
COc1ccc2cc3c(N)nn(C(=O)Cc4ccccc4OC)c3nc2c1,635,
Cc1cc(O)c(C=Nc2cccc(Cl)c2)c(=O)o1,,inactive
COc1cc2c(cc1OC)C(C(=O)Nc1ccc3c(c1)OCCO3)C1c3ccccc3CCN1C2=O (stereo unspecified),,inactive
CCn1c2ccccc2c2nc3ccccc3nc21,,inactive
c1ccc(C2=Nn3c(nnc3-c3ccncc3)SC2)cc1,,inactive
Cc1cc(C)c(C#N)c(SCc2ccc(C#N)cc2)n1,,inactive
COc1ccc(OC)c(C(=O)COC(=O)C2CC3CCCC(C2)C3=O)c1 (stereo unspecified),,inactive
CCOC(=O)Nc1sc(C(=O)N(CC)CC)c(C)c1C(=O)OCC,,inactive
CCCCCn1c(N)c(C#N)c2nc3ccccc3nc21,,inactive
Nc1nonc1-n1nnc(C(=O)c2ccccc2)c1-c1ccccc1,,inactive
COc1ccc2nc(SCC(=O)N3CCCCCC3)c(C#N)cc2c1,,inactive
CCN1C(=O)c2cccc3c(S(=O)(=O)Nc4ccccn4)ccc1c23,,inactive
c1ccc(COc2nsnc2N2CCOCC2)cc1,,inactive
COc1ccc(S(=O)(=O)N(C)c2ccc(C(=O)N3CCOCC3)cc2)cc1OC,,inactive
CCOC(=O)c1cc2c(=O)n3ccccc3nc2n(CCCOC)c1=NC(=O)c1cccnc1,,inactive
CCc1ccc2[nH]c(=O)c(CN(Cc3nnnn3C3CCCC3)C3CCCCC3)cc2c1,,inactive
O=C(c1cccn2c(=O)c3cc(Cl)ccc3nc12)N1CCN(Cc2ccc3c(c2)OCO3)CC1,,inactive
CCCCn1c(=NC(=O)c2ccco2)c(C(=O)OCC)cc2c(=O)n3ccccc3nc21,,inactive
Cc1cc(=O)c2n(Cc3ccc(Cl)cc3)nc[n+]2[nH]1,,inactive
O=C1CC(c2ccsc2)c2cc3c(cc2N1)OCCO3 (stereo unspecified),,inactive
COc1ccccc1CNC(=O)c1ccc(NS(=O)(=O)c2c(C)noc2C)cc1,,inactive
CC(C)Cn1c(=O)c(C(=O)Nc2cnccn2)c(O)c2ccccc21,,inactive
CCOC(=O)c1c(NC(=O)c2cccs2)sc(C)c1CC,,inactive

Structure (SMILES),EC50 [nM],outcome
O=C(C1CCC1)N1CCc2cc(S(=O)(=O)NCc3cccnc3)ccc21,,inactive
CC1CCCCN1C(=O)CSc1nc(C2CC2)nc2c1cnn2-c1ccccc1 (stereo unspecified),,inactive
N#CC1=C(N)Oc2nc(-c3ccccc3)[nH]c2C1c1cccnc1 (stereo unspecified),,inactive
CCCCCn1c(SCC(=O)OC)nc2c1c(=O)[nH]c(=O)n2C,,inactive
CSc1nncc(-c2ccc(F)c(F)c2)n1,,inactive
Cc1ccc(-n2c(=O)cc(N3CC(C)CC(C)C3)[nH]c2=O)cc1 (stereo unspecified),,inactive
CC(C)Cc1nc(N2CCN(C(=O)C(C)C)CC2)c(C#N)c2c1CCC2,,inactive
Cc1[nH]n(-c2ccccc2)c(=O)c1S(=O)(=O)c1ccccc1,,inactive
CC(C)Oc1ccccc1C1CC(=O)Nc2cc3c(cc21)OCCO3 (stereo unspecified),,inactive
CCc1ccc2oc(=O)cc(CN3CCOCC3)c2c1,,inactive
CCOc1ccc(N/C(SC)=C(/C#N)C(N)=O)cc1,,inactive
CC(=O)Oc1c(Cl)c(N2CCOCC2)c(OC(C)=O)c2ccccc12,,inactive
Cc1nc(N2CCC(C(N)=O)CC2)c2nnn(Cc3ccccc3)c2n1,,inactive
C=CCNc1sc(C(=O)C(C)(C)C)c(N)c1C#N,,inactive
CCOc1ccc(CC(=O)Nc2c(C(N)=O)oc3ccccc23)cc1OCC,,inactive
N#CC1=C(N)N(c2ccccc2)C2=C(C(=O)CCC2)C1c1cccs1 (stereo unspecified),,inactive
CCOC(=O)c1cc2c(=O)n3ccccc3nc2n(CCCOC)c1=NC(=O)C(C)(C)C,,inactive
CCCCn1c(=O)c(C(=O)Nc2cnccn2)c(O)c2ccccc21,,inactive
O=C1OCCC1Sc1ncnc2sc3c(c12)CCC3 (stereo unspecified),,inactive
CC(C)Cn1c(-c2cccs2)nc2nc3ccccc3nc21,,inactive
Clc1cccc(Nc2c3c(nc4ncnn24)CCC3)c1,,inactive
COc1ccc(OC)c(N2C(=O)C(Cl)=C(N3CCCCC3)C2=O)c1,,inactive
CCC(Sc1nc(=O)cc(N)n1CCc1ccccc1)C(=O)Nc1ccccc1C#N (stereo unspecified),,inactive

Structure (SMILES),EC50 [nM],outcome
c1csc(-c2nn3c(Cn4nnc5ccccc54)nnc3s2)c1,,inactive
c1ccc(-c2nc3nonc3nc2-c2ccccc2)cc1,,inactive
Cc1cc(C)nc(SCC(=O)N2CCCCC2)n1,,inactive
COc1ccc(C(=O)Nc2nnc(Cc3cccs3)s2)cc1OC,,inactive
CCn1cc(C(=O)OCC(=O)OC2CC(C)CCC2C(C)C)c(=O)c2ccc(C)nc21 (stereo unspecified),,inactive
CCOC(=O)N1CCN(C(=O)CCCn2c(=S)[nH]c3ccccc3c2=O)CC1,,inactive
Cc1cc2cc(CN(CCN3CCOCC3)C(=O)Nc3ccccc3F)c(=O)[nH]c2cc1C,,inactive
O=C(CCNS(=O)(=O)c1ccc2c(c1)CCC(=O)N2)NCc1ccc2c(c1)OCO2,,inactive
COc1ccccc1NC(=O)CC1Nc2ccccc2NC1=O (stereo unspecified),,inactive
N#Cc1ccc(-c2ccco2)nc1SCc1ccccc1,,inactive
COc1ccc2[nH]c(=O)c(CN(Cc3cccs3)Cc3nnnn3C(C)(C)C)cc2c1,,inactive
Nc1nc(SCc2ccc3c(c2)OCCO3)n[nH]1,,inactive
Nc1nc2n(n1)C(c1ccccc1)CC(c1ccc(F)cc1)N2 (stereo unspecified),,inactive
CCn1nc(C(=O)NC2=NCCS2)c2ccccc2c1=O,,inactive
COC(=O)C(C)C1Sc2ccccc2NC1=O (stereo unspecified),,inactive
Cn1cnc2c1c(=O)n(Cc1ccc(F)cc1Cl)c(=O)n2C,,inactive
Cc1nc2ccc(CCO)cc2s1,,inactive
Cc1ccc(Nc2nnc(SCc3cc(=O)n4ccsc4n3)s2)c(C)c1,,inactive
OCCn1nc2c3ccccc3nc-2n(-c2ccccc2)c1=S,,inactive
COCCNc1oc(-c2ccc(C)cc2)nc1C#N,,inactive
COC(=O)c1c(NC(=O)Cc2cccs2)sc2c1CCC(C)C2 (stereo unspecified),,inactive
CC(C)C1C(C#N)=C(N)Oc2n[nH]c(-c3ccccc3)c21 (stereo unspecified),,inactive
CCOC(=O)c1nn(-c2ccc(OC)cc2)c(=O)c2c(N)scc12,,inactive

Structure (SMILES),EC50 [nM],outcome
Nc1nc(CN2CCN(c3ccccc3)CC2)nc(N2CCCc3ccccc32)n1,,inactive
Cc1ccc(-n2cnnn2)c2cccnc12,,inactive
Cc1ccccc1NC(=O)c1nc[nH]c1C(=O)NCc1ccccc1,,inactive
CCSc1nc(-c2ccco2)ccc1C#N,,inactive
N#CCSc1ncnc2sc3c(c12)CCC3,,inactive
CCOC(=O)C1=C(C)Nc2nc(SC)nn2C1c1ccc(C(=O)OC)cc1 (stereo unspecified),,inactive
CCOC(=O)c1c(C)c(C(=O)NCc2ccc3c(c2)OCO3)c(C)n1C,,inactive
Clc1ccc(-n2nnnc2-c2ccccc2)cc1,,inactive
C=CCn1c2ccccc2c2nnc(SCC(=O)NC(C(=O)OC)C(C)C)nc21 (stereo unspecified),,inactive
Cc1cc(=O)n(CC=C(Cl)Cl)c2ccccc12,,inactive
COC(=O)c1sc2ccccc2c1C(=O)OC,,inactive
COc1ccc(-c2noc(CCC(N)=O)n2)cc1OC,,inactive
Cn1c(Cn2c(=O)sc3ccccc32)nnc1SCC(=O)N1CCOCC1,,inactive
C/C=C/Cn1c(SCCCc2ccccc2)nc2c1c(=O)[nH]c(=O)n2C,,inactive
C=CCNC(=O)c1ccccc1NC(=O)c1ccccc1,,inactive
CCOC(=O)CN(C(=O)CSc1nnc(-c2ccc(OC)c(OC)c2)o1)c1ccc(F)cc1,,inactive
O=C(CCc1ccc(CCC(=O)c2cccs2)s1)c1cccs1,,inactive
CCOC(=O)N1CCC(NC(=O)c2cccc3c2C(=O)N(Cc2cccnc2)C3)CC1,,inactive
CSc1ccccc1NC(=O)c1onc(C)c1Cl,,inactive
Cc1cc(SCC(=O)N2CCC(c3noc4ccc(F)cc34)CC2)nc2ccccc12,,inactive
CCCn1c(=NC(=O)c2ccco2)c(C(=O)OCC)cc2c(=O)n3ccccc3nc21,,inactive
COCc1cc(C)nc2sc(C(=O)N3CCN(c4ccccc4)CC3)c(N)c12,212,
CC(=NCc1cccnc1)C1=C(O)c2ccccc2C1=O,,inactive

Structure (SMILES),EC50 [nM],outcome
CCOC(=O)c1[nH]c2ccccc2c1NC(=O)C(C)(C)C,,inactive
CCOc1cc(C2CC(=O)NC(SCC)=C2C#N)ccc1O (stereo unspecified),,inactive
CCCCNC(=O)c1ccc2nc(-c3ccco3)c(-c3ccco3)nc2c1,,inactive
Clc1ccccc1Cn1nnc2c(N3CCCC3)ncnc21,,inactive
CCSc1nc2c(c(=O)n1Cc1ccccc1)SC(C)C2 (stereo unspecified),,inactive
Cn1c2c(c3ccccc31)CC/C2=N\O,,inactive
COc1cc(OC)cc(C(=O)Nn2cc(C(=O)N3CCN(C)CC3)c3ccccc3c2=O)c1,,inactive
O=c1cc(-c2ccccc2)c2c([nH]1)CCCC2,,inactive
NC(=O)c1c(NC(=O)CSc2nnc(-c3ccco3)n2-c2ccccc2)sc2c1CCC2,,inactive
CCOc1ccc(-c2nnn(CC(=O)NCc3ccc(OC)cc3)n2)cc1OCC,473,
Cc1cc(C)nc(SCC(=O)Nc2ncc3c(n2)CC(C)(C)CC3=O)n1,,inactive
CCCn1c(SCC(=O)Nc2sc(C)c(C)c2C(=O)OCC)nc2c1c(=O)n(C)c(=O)n2C,,inactive
COc1ccc(CCN(C)C(=O)C2CCCN(Cc3ccc(OC)c(OC)c3)C2)cc1OC (stereo unspecified),,inactive
C=CCn1c(SCc2nc3c(c(=O)[nH]c(=O)n3CCCC)n2CCC)nnc1-c1ccccc1,,inactive
CCC(=O)Nc1nc2c(OC)ccc(OC)c2s1,,inactive
CCOC(=O)c1nn(-c2ccccc2C)c(=O)c(C#N)c1C,,inactive
Cc1cc(=O)oc2cc(OCC(=O)NCCc3nc4ccccc4[nH]3)ccc12,,inactive
COC(=O)c1c(-c2ccc(F)cc2)csc1NC(=O)c1ccco1,,inactive
Cc1nn2c(N3CCCC3)cc(C(C)C)nc2c1-c1ccccc1,,inactive
